Experimental data reported in ChEMBL document CHEMBL5154881, “Discovery of First-in-Class TAK1-MKK3 Protein-Protein Interaction (PPI) Inhibitor (R)-STU104 for the Treatment of Ulcerative Colitis through Modulating TNF-α Production” (J Med Chem, 2022).
pIC50: −log10 of the molar value. Calls of active or inactive are those of the source. The rule behind the calls is not given here.

How the values were obtained:
RAW264.7 [1] = assay: Inhibition of LPS-induced TNFalpha production in mouse RAW264.7 cells at 50 uM preincubated for 2 hrs followed by LPS treatment for 24 hrs by RT-qPCR analysis relative to control; type: functional; details: time 26 hrs
RAW264.7 [2] = assay: Inhibition of LPS-induced TNFalpha production in mouse RAW264.7 cells preincubated for 2 hrs followed by LPS treatment for 24 hrs by RT-qPCR analysis; type: functional, cell-based
Peritoneal macrophage = assay: Inhibition of LPS-induced TNFalpha production in mouse peritoneal macrophage at 2.6 uM incubated overnight by immunoassay relative to control; type: functional
Mus musculus [3] = assay: Anti-ulcerative colitis activity in DSS-induced C57BL/6 mouse ulcerative colitis model assessed as colon length recovery ratio at 50 mg/kg, IG via gavage measured after 7 days relative to control; type: functional; details: time 7 day
Mus musculus [4] = assay: Antiinflammatory activity against IL-10-/- C57BL/6 mouse model of ulcerative colitis assessed as inhibition ratio of TNF-alpha protein expression at 50 mg/kg, IG via gavage and measured after 8 weeks by ELISA relative to control; type: functional; set-up: scale not given: the % may be the effect or the level left
Mus musculus [5] = assay: Antiinflammatory activity against IL-10-/- C57BL/6 mouse model of ulcerative colitis assessed as inhibition ratio of IL-6 protein expression at 50 mg/kg, IG via gavage and measured after 8 weeks by ELISA relative to control; type: functional; set-up: scale not given: the % may be the effect or the level left
Mus musculus [6] = assay: Anti-ulcerative colitis activity in DSS-induced C57BL/6 mouse ulcerative colitis model assessed as histopathological score recovery ratio at 50 mg/kg, IG via gavage measured after 7 days by H and E staining method relative to control; type: functional; details: time 7 day
Mus musculus [7] = assay: Antiinflammatory activity against DSS-induced C57BL/6 mouse model of acute ulcerative colitis assessed as inhibition ratio of IL-23 protein expression at 50 mg/kg, IG via gavage measured after 7 days by ELISA relative to control; type: functional; set-up: scale not given: the % may be the effect or the level left; details: time 7 day
Mus musculus [8] = assay: Antiinflammatory activity against IL-10-/- C57BL/6 mouse model of ulcerative colitis assessed as inhibition ratio of TNF-alpha mRNA expression in colon tissue at 50 mg/kg, IG via gavage and measured after 8 weeks by RT-qPCR analysis relative to control; type: functional; set-up: scale not given: the % may be the effect or the level left
Mus musculus [9] = assay: Antiinflammatory activity against IL-10-/- C57BL/6 mouse model of ulcerative colitis assessed as inhibition ratio of IL-23 protein expression at 50 mg/kg, IG via gavage and measured after 8 weeks by ELISA relative to control; type: functional; set-up: scale not given: the % may be the effect or the level left
Mus musculus [10] = assay: Antiinflammatory activity against DSS-induced C57BL/6 mouse model of acute ulcerative colitis assessed as inhibition ratio of TNF-alpha mRNA expression in colon tissue at 50 mg/kg, IG via gavage measured after 7 days by RT-qPCR analysis relative to control; type: functional; set-up: scale not given: the % may be the effect or the level left; details: time 7 day
Mus musculus [11] = assay: Antiinflammatory activity against IL-10-/- C57BL/6 mouse model of ulcerative colitis assessed as inhibition ratio of IL-23 mRNA expression in colon tissue at 50 mg/kg, IG via gavage and measured after 8 weeks by RT-qPCR analysis relative to control; type: functional; set-up: scale not given: the % may be the effect or the level left
Mus musculus [12] = assay: Antiinflammatory activity against DSS-induced C57BL/6 mouse model of acute ulcerative colitis assessed as inhibition ratio of IL-6 mRNA expression in colon tissue at 50 mg/kg, IG via gavage measured after 7 days by RT-qPCR analysis relative to control; type: functional; set-up: scale not given: the % may be the effect or the level left; details: time 7 day
Mus musculus [13] = assay: Antiinflammatory activity against IL-10-/- C57BL/6 mouse model of ulcerative colitis assessed as inhibition ratio of IL-1beta mRNA expression in colon tissue at 50 mg/kg, IG via gavage and measured after 8 weeks by RT-qPCR analysis relative to control; type: functional; set-up: scale not given: the % may be the effect or the level left
Mus musculus [14] = assay: Antiinflammatory activity against DSS-induced C57BL/6 mouse model of acute ulcerative colitis assessed as inhibition ratio of IL-1beta protein expression at 50 mg/kg, IG via gavage measured after 7 days by ELISA relative to control; type: functional; set-up: scale not given: the % may be the effect or the level left; details: time 7 day
Mus musculus [15] = assay: Anti-ulcerative colitis activity in IL-10-/- C57BL/6 mouse ulcerative colitis model assessed as animal survival at 50 mg/kg, IG via gavage for 8 weeks; type: functional, organism-based
Mus musculus [16] = assay: Antiinflammatory activity against IL-10-/- C57BL/6 mouse model of ulcerative colitis assessed as inhibition ratio of IL-1beta protein expression at 50 mg/kg, IG via gavage and measured after 8 weeks by ELISA relative to control; type: functional; set-up: scale not given: the % may be the effect or the level left
Mus musculus [17] = assay: Anti-ulcerative colitis activity in IL-10-/- C57BL/6 mouse model of ulcerative colitis assessed as histopathological score recovery ratio at 50 mg/kg, IG via gavage for 8 weeks relative to control; type: functional
Mus musculus [18] = assay: Antiinflammatory activity against DSS-induced C57BL/6 mouse model of acute ulcerative colitis assessed as inhibition ratio of TNF-alpha protein expression at 50 mg/kg, IG via gavage measured after 7 days by ELISA relative to control; type: functional; set-up: scale not given: the % may be the effect or the level left; details: time 7 day
Mus musculus [19] = assay: Anti-ulcerative colitis activity in IL-10-/- C57BL/6 mouse model of ulcerative colitis assessed as colon length recovery ratio at 50 mg/kg, IG via gavage for 8 weeks relative to control; type: functional
Mus musculus [20] = assay: Anti-ulcerative colitis activity against DSS-induced ulcerative colitis C57BL/6 mouse model assessed as body weight recovery rate at 50 mg/kg, IG via gavage administered for 7 days and measured everyday relative to control; type: functional; details: time 7 day
Mus musculus [21] = assay: Anti-ulcerative colitis activity against DSS-induced ulcerative colitis C57BL/6 mouse model assessed as reduction in DAI recovery score ratio at 50 mg/kg, IG via gavage administered for 7 days and measured everyday relative to control; type: functional; set-up: scale not given: the % may be the effect or the level left; details: time 7 day
Mus musculus [22] = assay: Antiinflammatory activity against IL-10-/- C57BL/6 mouse model of ulcerative colitis assessed as inhibition ratio of IL-6 mRNA expression in colon tissue at 50 mg/kg, IG via gavage and measured after 8 weeks by RT-qPCR analysis relative to control; type: functional; set-up: scale not given: the % may be the effect or the level left
Mus musculus [23] = assay: Anti-ulcerative colitis activity against DSS-induced ulcerative colitis C57BL/6 mouse model assessed as reduction in DAI score at 50 mg/kg, IG via gavage administered for 7 days and measured everyday (reference value: 4.0); type: functional; details: time 7 day
Mus musculus [24] = assay: Antiinflammatory activity against DSS-induced C57BL/6 mouse model of acute ulcerative colitis assessed as inhibition of IL-23 mRNA expression in colon tissue administered intragastrically via gavage measured after 7 days by RT-qPCR analysis; type: functional, organism-based; details: route ig, time 7.0 day, DDE = dose-dependent effect
Mus musculus [25] = assay: Antiinflammatory activity against DSS-induced C57BL/6 mouse model of acute ulcerative colitis assessed as inhibition ratio of IL-6 protein expression at 50 mg/kg, IG via gavage measured after 7 days by ELISA relative to control; type: functional; set-up: scale not given: the % may be the effect or the level left; details: time 7 day

COc1cc(OC)c2c(c1)C(=O)CC2c1cccs1 (stereo not given)
inhibition at 50 µM (RAW264.7 [1]): 5.6%

COc1cc(OC)c2c(c1)C(=O)CC2c1ccc(C)cc1 (stereo not given)
pIC50 (RAW264.7 [2]): 4.32 | inhibition at 50 µM (RAW264.7 [1]): 49.9%

COc1ccc([C@@H]2CC(=O)c3cc(OC)cc(OC)c32)cc1
pIC50 (RAW264.7 [2]): < 4.30

COc1cc(OC)c2c(c1)C(=O)CC2c1ccc(OC(C)(F)F)cc1 (stereo not given)
pIC50 (RAW264.7 [2]): 5.35 | inhibition at 50 µM (RAW264.7 [1]): 76.5%

COc1cc(OC)cc(C2CC(=O)c3cc(OC)ccc32)c1 (stereo not given)
pIC50 (RAW264.7 [2]): 5.45 | inhibition at 50 µM (RAW264.7 [1]): 0.2%

COc1cc(C2CC(=O)c3cc(OC)c(OC)c(OC)c32)cc(OC)c1OC (stereo not given)
inhibition at 2.6 µM (Peritoneal macrophage): 55%

COc1cc(OC)c2c(c1)C(=O)CC2c1ccc2c(c1)OCO2 (stereo not given)
inhibition at 50 µM (RAW264.7 [1]): 15.5%

COc1cc2c(cc1OC)C(c1ccc(F)cc1)CC2=O (stereo not given)
inhibition at 50 µM (RAW264.7 [1]): 80%

COc1cc(OC)c2c(c1)C(=O)CC2c1csc2ccccc12 (stereo not given)
inhibition at 50 µM (RAW264.7 [1]): 5.9%

COc1cc(OC)c2c(c1)C(=O)CC2c1ccc(F)cc1 (stereo not given)
inhibition at 50 µM (RAW264.7 [1]): -4.2%

COc1cc2c(cc1OC)C(c1ccc(C)cc1)CC2=O (stereo not given)
pIC50 (RAW264.7 [2]): 4.33 | inhibition at 50 µM (RAW264.7 [1]): 55.2%

COc1cc(OC)c2c(c1)C(=O)CC2c1ccc(SC)cc1 (stereo not given)
pIC50 (RAW264.7 [2]): 5.41 | inhibition at 50 µM (RAW264.7 [1]): 79.8%

COc1cc(OC)c2c(c1)C(=O)CC2c1ccc2cc(OC)ccc2c1 (stereo not given)
pIC50 (RAW264.7 [2]): 4.29 | inhibition at 50 µM (RAW264.7 [1]): 4.6%

Cc1ccc(C2CC(=O)c3cc4c(cc32)OCO4)cc1 (stereo not given)
pIC50 (RAW264.7 [2]): 4.36 | inhibition at 50 µM (RAW264.7 [1]): 66.2%

COc1cc(OC)c2c(c1)C(=O)CC2c1ccc(OC(F)(F)F)cc1 (stereo not given)
inhibition at 50 µM (RAW264.7 [1]): 4.4%

COc1ccc(C2CC(=O)c3cc(OC)cc(OC)c32)cc1 (stereo not given)
pIC50 (RAW264.7 [2]): 5.90 | inhibition at 50 µM (RAW264.7 [1]): 82.6%

COc1cc(OC)c2c(c1)C(=O)CC2c1ccc(Cl)cc1 (stereo not given)
inhibition at 50 µM (RAW264.7 [1]): -98.9%

O=C1CC(c2ccc(F)cc2)c2cc3c(cc21)OCO3 (stereo not given)
inhibition at 50 µM (RAW264.7 [1]): 5.3%

COc1ccc(C2c3c(OC)cc(OC)cc3C(=O)C2c2cc(OC)cc(OC)c2)cc1 (stereo not given)
pIC50 (RAW264.7 [2]): 4.34 | inhibition at 50 µM (RAW264.7 [1]): 62.3%

Nc1ccc(O)c(C(=O)O)c1 [MESALAMINE]
Activity (Mus musculus [3]): 39.4% | Activity (Mus musculus [4]): 42.2% | Activity (Mus musculus [5]): 54.9% | Activity (Mus musculus [6]): 38.3% | Activity (Mus musculus [7]): 27.5% | Activity (Mus musculus [8]): 30.1% | Activity (Mus musculus [9]): 55.7% | Activity (Mus musculus [10]): 48.7% | Activity (Mus musculus [11]): 54.7% | Activity (Mus musculus [12]): 46% | Activity (Mus musculus [13]): 36.9% | Activity (Mus musculus [14]): 47.3% | Activity (Mus musculus [15]): Active | Activity (Mus musculus [16]): 44% | Activity (Mus musculus [17]): 44.3% | Activity (Mus musculus [18]): 43.2% | Activity (Mus musculus [19]): 32.4% | Activity (Mus musculus [20]): 38.3% | Activity (Mus musculus [21]): 25% | Activity (Mus musculus [22]): 46.3% | Activity (Mus musculus [23]): 3 | Activity (Mus musculus [24]): Dde | Activity (Mus musculus [25]): 53.5%

COc1cc(OC)c2c(c1)C(=O)CC2c1ccccc1C (stereo not given)
pIC50 (RAW264.7 [2]): 5.40 | inhibition at 50 µM (RAW264.7 [1]): 77.6%

COc1ccc2c(c1)C(=O)CC2c1ccc(F)cc1 (stereo not given)
inhibition at 50 µM (RAW264.7 [1]): 6.5%

COc1cc(OC)c2c(c1)C(=O)CC2c1ccc(Br)cc1 (stereo not given)
inhibition at 50 µM (RAW264.7 [1]): -88.5%
